Measurements from patent US6620828B2, “Thiazole compounds and pharmaceutical compositions for inhibiting protein kinases and methods for their use” (Agouron Pharmaceuticals, Inc., priority 1999, dated 2003).

system: human umbilical vein endothelial cells (HUVEC); test: HUVEC proliferation assay; assay type: cell-based; settings: Homo sapiens, HUVEC, Table I screening results; 150 nM; crude combinatorial amide library
How it was run: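 Exponentially growing HUVEC were serum-starved 24 h (F12K + 1% FBS), pre-treated 1 h with compound (0.1% DMSO final), then stimulated with 6 ng/ml VEGF. Proliferation was read 72 h later by MTT reduction (A595). IC50 came from seven 0.5-log concentrations in triplicate; screens gave % inhibition relative to VEGF-only and starved wells.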

Structure (SMILES)	inhibition at 0.15 µM [%]
COc1cc(Nc2nc(N)c(-c3nc(-c4cccc(NC(=O)C5=C(C)c6ccccc6C5)c4)cs3)s2)cc(OC)c1OC	29
COc1cc(Nc2nc(N)c(-c3nc(-c4cccc(NC(=O)/C(=C/c5ccccc5)c5ccccc5)c4)cs3)s2)cc(OC)c1OC	3
COc1cc(Nc2nc(N)c(-c3nc(-c4cccc(NC(=O)c5ccc(-c6ccccc6)cc5)c4)cs3)s2)cc(OC)c1OC	-32
COc1cc(Nc2nc(N)c(-c3nc(-c4cccc(NC(=O)Cc5cc(C)ccc5C)c4)cs3)s2)cc(OC)c1OC	12
COc1cc(Nc2nc(N)c(-c3nc(-c4cccc(NC(=O)C(C)(C)C)c4)cs3)s2)cc(OC)c1OC	7
COc1cc(CC(=O)Nc2cccc(-c3csc(-c4sc(Nc5cc(OC)c(OC)c(OC)c5)nc4N)n3)c2)cc(OC)c1OC	29
COc1cc(Nc2nc(N)c(-c3nc(-c4cccc(NC(=O)c5ncoc5-c5ccccc5)c4)cs3)s2)cc(OC)c1OC [drawing 897]	64

same assay, conditions: Homo sapiens, HUVEC, Table II screening results; 1 nM; crude combinatorial amide library

Structure (SMILES)	inhibition at 0.001 µM [%]
CCO/C(C)=C/C(=O)Nc1cccc(-c2csc(-c3sc(NC(=O)NC)nc3N)n2)c1	7
CNC(=O)Nc1nc(N)c(-c2nc(-c3cccc(NC(=O)Cc4sc(S)nc4C)c3)cs2)s1	18
CNC(=O)Nc1nc(N)c(-c2nc(-c3cccc(NC(=O)C4C(C=C(C)C)C4(C)C)c3)cs2)s1 (centres unmarked)	-17
CNC(=O)Nc1nc(N)c(-c2nc(-c3cccc(NC(=O)C4CC(=O)OC4(C)C)c3)cs2)s1 (centres unmarked)	2
CNC(=O)Nc1nc(N)c(-c2nc(-c3cccc(NC(=O)CC4CC5CCC4C5)c3)cs2)s1 (centres unmarked)	0

same assay, conditions: Homo sapiens, HUVEC, Table II screening results; 10 nM; crude combinatorial amide library; read-out: % inhibition @ 10 nM

Structure (SMILES)	inhibition at 0.01 µM [%]
CCO/C(C)=C/C(=O)Nc1cccc(-c2csc(-c3sc(NC(=O)NC)nc3N)n2)c1	47
CNC(=O)Nc1nc(N)c(-c2nc(-c3cccc(NC(=O)Cc4sc(S)nc4C)c3)cs2)s1	-25
CNC(=O)Nc1nc(N)c(-c2nc(-c3cccc(NC(=O)C4C(C=C(C)C)C4(C)C)c3)cs2)s1 (centres unmarked)	12
CNC(=O)Nc1nc(N)c(-c2nc(-c3cccc(NC(=O)C4CC(=O)OC4(C)C)c3)cs2)s1 (centres unmarked)	-10
CNC(=O)Nc1nc(N)c(-c2nc(-c3cccc(NC(=O)CC4CC5CCC4C5)c3)cs2)s1 (centres unmarked)	93

same assay, conditions: Homo sapiens, HUVEC, table following Table II (untitled); 1 nM; crude combinatorial library

Structure (SMILES)	inhibition at 0.001 µM [%]
C/C=C/C(=O)Nc1ccc(C)c(-c2noc(-c3sc(Nc4cc(OC)c(OC)c(OC)c4)nc3N)n2)c1	9
COc1cc(Nc2nc(N)c(-c3nc(-c4cc(NC(=O)C(C)C)ccc4C)no3)s2)cc(OC)c1OC	6
COc1cc(Nc2nc(N)c(-c3nc(-c4cc(NC(=O)[C@H](O)C(C)(C)C)ccc4C)no3)s2)cc(OC)c1OC	-34
COc1cc(Nc2nc(N)c(-c3nc(-c4cc(NC(=O)c5ccccc5)ccc4C)no3)s2)cc(OC)c1OC	25
CCc1ccccc1C(=O)Nc1ccc(C)c(-c2noc(-c3sc(Nc4cc(OC)c(OC)c(OC)c4)nc3N)n2)c1	-26
COc1cc(Nc2nc(N)c(-c3nc(-c4cc(NC(=O)c5cc(C)n[nH]5)ccc4C)no3)s2)cc(OC)c1OC	-1
COc1cc(Nc2nc(N)c(-c3nc(-c4cc(NC(=O)C5CCC(=O)CC5)ccc4C)no3)s2)cc(OC)c1OC	23
COc1cc(Nc2nc(N)c(-c3nc(-c4cc(NC(=O)[C@H]5CC(=O)NC(=O)N5)ccc4C)no3)s2)cc(OC)c1OC	25
CCNc1ccccc1C(=O)Nc1ccc(C)c(-c2noc(-c3sc(Nc4cc(OC)c(OC)c(OC)c4)nc3N)n2)c1	-21
COc1cc(Nc2nc(N)c(-c3nc(-c4cc(NC(=O)c5cc(=O)cco5)ccc4C)no3)s2)cc(OC)c1OC	19
COc1cc(Nc2nc(N)c(-c3nc(-c4cc(NC(=O)C5CC(=O)OC5(C)C)ccc4C)no3)s2)cc(OC)c1OC (centres unmarked)	-9
COc1cc(Nc2nc(N)c(-c3nc(-c4cc(NC(=O)C5CCOC5)ccc4C)no3)s2)cc(OC)c1OC (centres unmarked)	16
COc1cc(Nc2nc(N)c(-c3nc(-c4cc(NC(=O)Cc5cccnc5)ccc4C)no3)s2)cc(OC)c1OC	-4
COc1cc(Nc2nc(N)c(-c3nc(-c4cc(NC(=O)c5cc(C)on5)ccc4C)no3)s2)cc(OC)c1OC	12
COc1cc(Nc2nc(N)c(-c3nc(-c4cc(NC(=O)Cc5cn(C)cn5)ccc4C)no3)s2)cc(OC)c1OC	-7

same assay, conditions: Homo sapiens, HUVEC, table following Table II (untitled); 10 nM; crude combinatorial library; read-out: % inhibition @ 10 nM

Structure (SMILES)	inhibition at 0.01 µM [%]
C/C=C/C(=O)Nc1ccc(C)c(-c2noc(-c3sc(Nc4cc(OC)c(OC)c(OC)c4)nc3N)n2)c1	65
COc1cc(Nc2nc(N)c(-c3nc(-c4cc(NC(=O)C(C)C)ccc4C)no3)s2)cc(OC)c1OC	1
COc1cc(Nc2nc(N)c(-c3nc(-c4cc(NC(=O)[C@H](O)C(C)(C)C)ccc4C)no3)s2)cc(OC)c1OC	-11
COc1cc(Nc2nc(N)c(-c3nc(-c4cc(NC(=O)c5ccccc5)ccc4C)no3)s2)cc(OC)c1OC	111
CCc1ccccc1C(=O)Nc1ccc(C)c(-c2noc(-c3sc(Nc4cc(OC)c(OC)c(OC)c4)nc3N)n2)c1	59
COc1cc(Nc2nc(N)c(-c3nc(-c4cc(NC(=O)c5cc(C)n[nH]5)ccc4C)no3)s2)cc(OC)c1OC	99
COc1cc(Nc2nc(N)c(-c3nc(-c4cc(NC(=O)C5CCC(=O)CC5)ccc4C)no3)s2)cc(OC)c1OC	-24
COc1cc(Nc2nc(N)c(-c3nc(-c4cc(NC(=O)[C@H]5CC(=O)NC(=O)N5)ccc4C)no3)s2)cc(OC)c1OC	2
CCNc1ccccc1C(=O)Nc1ccc(C)c(-c2noc(-c3sc(Nc4cc(OC)c(OC)c(OC)c4)nc3N)n2)c1	18
COc1cc(Nc2nc(N)c(-c3nc(-c4cc(NC(=O)c5cc(=O)cco5)ccc4C)no3)s2)cc(OC)c1OC	37
COc1cc(Nc2nc(N)c(-c3nc(-c4cc(NC(=O)C5CC(=O)OC5(C)C)ccc4C)no3)s2)cc(OC)c1OC (centres unmarked)	12
COc1cc(Nc2nc(N)c(-c3nc(-c4cc(NC(=O)C5CCOC5)ccc4C)no3)s2)cc(OC)c1OC (centres unmarked)	6
COc1cc(Nc2nc(N)c(-c3nc(-c4cc(NC(=O)Cc5cccnc5)ccc4C)no3)s2)cc(OC)c1OC	21
COc1cc(Nc2nc(N)c(-c3nc(-c4cc(NC(=O)c5cc(C)on5)ccc4C)no3)s2)cc(OC)c1OC	15
COc1cc(Nc2nc(N)c(-c3nc(-c4cc(NC(=O)Cc5cn(C)cn5)ccc4C)no3)s2)cc(OC)c1OC	-14

same assay, conditions: Table I screening results; 150 nM; crude combinatorial amide library

Structure (SMILES)	% inhibition @ 150 nM [%]
COc1ccc(/C=C/C(=O)Nc2cccc(-c3csc(-c4sc(Nc5cc(OC)c(OC)c(OC)c5)nc4N)n3)c2)cc1OC	0
C=CCC(C)C(=O)Nc1cccc(-c2csc(-c3sc(Nc4cc(OC)c(OC)c(OC)c4)nc3N)n2)c1 (centres unmarked)	0
COc1cc(Nc2nc(N)c(-c3nc(-c4cccc(NC(=O)CCc5cccnc5)c4)cs3)s2)cc(OC)c1OC	0
